Some test systems named below: ACHN renal; MDA-MB-231 breast; DU-145 prostate; PC-3 prostate; MDA-MB-435; BT-549 breast; XF 498 CNS; A498 renal.
What all share (test): DTP human tumour cell line panel, 48 h

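96-well plates; 48 h exposure; 5 concentrations. Endpoints by linear interpolation between flanking doses. Not reached: highest tested concentration assigned. TGI: concentration producing complete growth inhibition.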

Usually TGI stands for the concentration at which net growth stops. A high value points to lower sensitivity of the cells.

Turning to `O=C(N/N=C/c1cc(Br)cc(Br)c1[O-])c1ccccc1O.O=C(N/N=C/c1cc(Br)cc(Br)c1[O-])c1ccccc1O.[Cu+2]`, the TGI in the test with ACHN renal was 2420 nM. That is a single-digit micromolar value.
On to `CN1C2CCC1CC(C)(O)C2` (stereo not drawn), for which the TGI in the test on MDA-MB-231 breast, in the test with DU-145 prostate, in the test on PC-3 prostate, with MDA-MB-435 and in the test on BT-549 breast was above 100 µM in each case.
Turning to `Nc1ccn(C2OC(CO)C(O)C2O)c(=O)c1` (stereo not drawn), the concentration for total growth inhibition (TGI) in the test on XF 498 CNS was below 62.5 nM.
In the test on A498 renal, `COc1ccc(C2COc3cc(O)c(O)cc3C2)cc1` (stereo not drawn) gave a concentration for total growth inhibition (TGI) of 17.4 µM.

These data come from PubChem BioAssay (NCI).
